According to patent US20260070945A1, “MACROCYCLIC IMMUNOMODULATORS” (Bristol-Myers Squibb Company, priority 2022, published 2026):
*1 amine or outer side, *2 acyl side, *3 side chain or, on linkers, in order; H or OH if unused. Where a SMILES comes first, the peptide text is derived from it. Bridges are numbered along the chain shown (N, C = ends). [ ]: non-standard residue; d: D form. The star is where a group is joined. ξ: configuration not given here. Phe(3-CF3) = N[C@@H](Cc1cccc(C(F)(F)F)c1)C(=O)O; Phe(4-COOH) = N[C@@H](Cc1ccc(C(=O)O)cc1)C(=O)O; Bip = N[C@@H](Cc1ccc(-c2ccccc2)cc1)C(=O)O; NH(CH2)14COOH = O=C(O)CCCCCCCCCCCCCCN*; Phe(3-Me) = Cc1cccc(C[C@H](N)C(=O)O)c1; γGlu = O=C(O)[C@H](CCC(=O)[*:2])N[*:1]; NH(CH2)12COOH = O=C(O)CCCCCCCCCCCCN*; Val(3-OH) = CC(C)(O)[C@H](N)C(=O)O; hArg = N=C(N)NCCCC[C@H](N)C(=O)O; 4Pal = N[C@@H](Cc1ccncc1)C(=O)O; NMeQ = CN[C@@H](CCC(N)=O)C(=O)O; Cha = N[C@@H](CC1CCCCC1)C(=O)O; Cit = NC(=O)NCCC[C@H](N)C(=O)O; Ile(3ξ) = CCC(C)[C@H](N)C(=O)O; Thr(3ξ) = CC(O)[C@H](N)C(=O)O; 12Ado = NCCCCCCCCCCCC(=O)O; Carboxymethyl = O=C(O)C*; NMeA = CN[C@@H](C)C(=O)O; Orn = NCCC[C@H](N)C(=O)O; Aun = NCCCCCCCCCCC(=O)O; Dab = NCC[C@H](N)C(=O)O; Dap = NC[C@H](N)C(=O)O; AEEA = NCCOCCOCC(=O)O

biological target: T1, PD-1/PD-L1 interaction (PE-labeled human PD-L1-Ig binding to Jurkat cell line over-expressing human PD-1) (Homo sapiens, UniProt Q15116); experiment: Jurkat-PD-1 Cell Binding High-Content Screening Assay (CBA); conditions: Jurkat-hPD-1 cells, PE-labeled PD-L1-Ig 20 nM final; read-out: Jurkat HPD1 PDL1 IC50
T1 construct: expressed in transfected cells; host or cells: Jurkat
Outline: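 In this imaging assay, cells in 10% FCS medium see compound for 2 h at 37 °C and then labeled ligand at 20 nM final for 1 h. Paraformaldehyde fixation, Hoechst 33342 staining and dPBS washes precede image capture.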

T1 sequence (Q15116 25-288): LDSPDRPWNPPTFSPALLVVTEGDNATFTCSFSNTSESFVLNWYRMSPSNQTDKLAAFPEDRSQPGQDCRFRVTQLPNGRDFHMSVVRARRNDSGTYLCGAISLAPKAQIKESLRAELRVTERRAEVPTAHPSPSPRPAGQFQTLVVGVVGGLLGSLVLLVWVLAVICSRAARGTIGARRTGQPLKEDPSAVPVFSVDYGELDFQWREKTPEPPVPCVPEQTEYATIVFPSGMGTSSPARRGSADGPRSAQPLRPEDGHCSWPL

| Structure (SMILES) | IC50 |
| --- | --- |
| Cc1cccc(C[C@@H]2NC(=O)[C@H](CC(=O)O)NC(=O)[C@H](Cc3ccc(OCC(=O)O)cc3)NC(=O)[C@H](CN)NC(=O)CSC[C@@H](C(=O)NCCCCCCCCCCC(=O)O)NC(=O)[C@H](CCCN)NC(=O)[C@H](C(C)C)NC(=O)[C@H](CC3CCCCC3)NC(=O)[C@H](CCN)NC(=O)[C@@H](CC(C)C)NC(=O)[C@H](C)N(C)C(=O)[C@H](Cc3ccc(O)cc3)NC(=O)[C@H](Cc3ccc(-c4ccccc4)cc3)NC(=O)[C@H](Cc3ccc(O)cc3)NC2=O)c1 [Example 1318] ({CH2CO}-[Dap]Y(Carboxymethyl)D[Phe(3-Me)]Y[Bip]Y[NMeA][dL][Dab][Cha]V[Orn]C[Aun]-OH; thioether N-14) | 59.8 nM |
| CC[C@H](C)[C@@H]1NC(=O)[C@H](Cc2ccc(-c3ccccc3)cc2)NC(=O)[C@H](CC(C)C)NC(=O)[C@H](Cc2c[nH]c3ccccc23)NC(=O)[C@H](CC(=O)O)NC(=O)[C@H](Cc2ccc(OCC(=O)O)cc2)NC(=O)[C@H](CCCCNC(=N)N)NC(=O)CSC[C@@H](C(=O)NCCOCCOCC(=O)N[C@@H](CCN)C(=O)NCCCCCCCCCCC(=O)O)NC(=O)[C@H](CCCCN)NC(=O)[C@H](C(C)C)NC(=O)[C@H](CC2CCCCC2)NC(=O)[C@H](CCN)NC(=O)[C@H]2CCCN2C(=O)[C@H](C)N(C)C1=O [Example 2186] ({CH2CO}-[hArg]Y(Carboxymethyl)DWL[Bip]I[NMeA][dP][Dab][Cha]VKC[AEEA][Dab][Aun]-OH; thioether N-14) | 158 nM |
| Cc1cccc(C[C@@H]2NC(=O)[C@H](CC(=O)O)NC(=O)[C@H](Cc3ccc(OCC(=O)O)cc3)NC(=O)[C@H](Cc3ccc(OCC(=O)O)cc3)NC(=O)CSC[C@@H](C(=O)NCCCCCCCCCCC(=O)O)NC(=O)[C@H](CCC(=O)O)NC(=O)[C@H](C(C)C)NC(=O)[C@H](CC3CCCCC3)NC(=O)[C@H](CCN)NC(=O)[C@@H](CC(C)C)NC(=O)[C@H](CCC(N)=O)N(C)C(=O)[C@H](Cc3ccc(O)cc3)NC(=O)[C@H](Cc3ccc(-c4ccccc4)cc3)NC(=O)[C@H](Cc3ccc(O)cc3)NC2=O)c1 [Example 2255] ({CH2CO}-Y(Carboxymethyl)Y(Carboxymethyl)D[Phe(3-Me)]Y[Bip]Y[NMeQ][dL][Dab][Cha]VEC[Aun]-OH; thioether N-14) | 63.1 nM |

The remaining lines, values ahead:

| IC50 | Structure (SMILES) |
| --- | --- |
| 14.1 nM | CCC(C)[C@@H]1NC(=O)[C@H](Cc2ccc(-c3ccccc3)cc2)NC(=O)[C@H](C(C)C)NC(=O)[C@H](Cc2c[nH]c3ccccc23)NC(=O)[C@H](CC(=O)O)NC(=O)[C@H](Cc2ccc(OCC(=O)O)cc2)NC(=O)[C@H](Cc2ccncc2)NC(=O)CSC[C@@H](C(=O)N[C@@H](CCCN)C(=O)NCCOCCOCC(=O)NCCCCCCCCCCC(=O)O)NC(=O)[C@H](C(C)O)NC(=O)[C@H](C(C)C)NC(=O)[C@H](CC2CCCCC2)NC(=O)[C@H](CCN)NC(=O)[C@@H](CC(C)C)NC(=O)[C@H](C)N(C)C1=O (stereo partly drawn) [Example 2104] ({CH2CO}-[4Pal]Y(Carboxymethyl)DWV[Bip][Ile(3ξ)][NMeA][dL][Dab][Cha]V[Thr(3ξ)]C[Orn][AEEA][Aun]-OH; thioether N-14) |
| 20.2 nM | Cc1cccc(C[C@@H]2NC(=O)[C@H](CC(=O)O)NC(=O)[C@H](Cc3ccc(C(=O)O)cc3)NC(=O)[C@H](Cc3ccc(OCC(=O)O)cc3)NC(=O)CSC[C@@H](C(=O)N[C@@H](CCN)C(=O)NCCCCCCCCCCC(=O)O)NC(=O)[C@H](CCC(=O)O)NC(=O)[C@H](C(C)C)NC(=O)[C@H](CC3CCCCC3)NC(=O)[C@H](CCN)NC(=O)[C@@H](CC(C)C)NC(=O)[C@H](C)N(C)C(=O)[C@H](C(C)C)NC(=O)[C@H](Cc3ccc(-c4ccccc4)cc3)NC(=O)[C@H](CC(C)C)NC2=O)c1 [Example 2293] ({CH2CO}-Y(Carboxymethyl)[Phe(4-COOH)]D[Phe(3-Me)]L[Bip]V[NMeA][dL][Dab][Cha]VEC[Dab][Aun]-OH; thioether N-14) |
| 19.1 nM | CC(C)C[C@@H]1NC(=O)[C@H](Cc2c[nH]c3ccccc23)NC(=O)[C@H](CC(=O)O)NC(=O)[C@H](Cc2ccc(C(=O)O)cc2)NC(=O)[C@H](Cc2ccc(OCC(=O)O)cc2)NC(=O)CSC[C@@H](C(=O)N[C@@H](CCCN)C(=O)NCCOCCOCC(=O)NCCCCCCCCCCCC(=O)O)NC(=O)[C@H](CO)NC(=O)[C@H](C(C)C)NC(=O)[C@H](CC2CCCCC2)NC(=O)[C@H](CCN)NC(=O)[C@@H](CC(C)C)NC(=O)[C@H](C)N(C)C(=O)[C@H](C(C)C)NC(=O)[C@H](Cc2ccc(-c3ccccc3)cc2)NC1=O [Example 2131] ({CH2CO}-Y(Carboxymethyl)[Phe(4-COOH)]DWL[Bip]V[NMeA][dL][Dab][Cha]VSC[Orn][AEEA][12Ado]-OH; thioether N-14) |
| 17.9 nM | CCC(C)[C@@H]1NC(=O)[C@H](Cc2ccc(-c3ccccc3)cc2)NC(=O)[C@H](C(C)C)NC(=O)[C@H](Cc2c[nH]c3ccccc23)NC(=O)[C@H](CC(=O)O)NC(=O)[C@H](Cc2ccc(OCC(=O)O)cc2)NC(=O)[C@H](Cc2ccc(OCC(=O)O)cc2)NC(=O)CSC[C@@H](C(=O)N[C@H](CC(N)=O)C(=O)NCCCCCCCCCCC(=O)O)NC(=O)[C@H](CCCNC(=N)N)NC(=O)[C@H](C(C)C)NC(=O)[C@H](CC2CCCCC2)NC(=O)[C@H](CCN)NC(=O)[C@@H](CC(C)C)NC(=O)[C@H](C)N(C)C1=O (stereo partly drawn) [Example 2287] ({CH2CO}-Y(Carboxymethyl)Y(Carboxymethyl)DWV[Bip][Ile(3ξ)][NMeA][dL][Dab][Cha]VRC[dN][Aun]-OH; thioether N-14) |
| 15.6 nM | CC(C)C[C@@H]1NC(=O)[C@H](Cc2c[nH]c3ccccc23)NC(=O)[C@H](CC(=O)O)NC(=O)[C@H](Cc2ccncc2)NC(=O)[C@H](Cc2ccc(OCC(=O)O)cc2)NC(=O)CSC[C@@H](C(=O)NCC(=O)NCCOCCOCC(=O)N[C@@H](CCCNC(N)=O)C(=O)NCCCCCCCCCCC(=O)O)NC(=O)[C@H](CCCNC(N)=O)NC(=O)[C@H](C(C)C)NC(=O)[C@H](CC2CCCCC2)NC(=O)[C@H](CCN)NC(=O)[C@@H](CC(C)C)NC(=O)[C@H](C)N(C)C(=O)[C@H](C(C)C)NC(=O)[C@H](Cc2ccc(-c3ccccc3)cc2)NC1=O [Example 2173] ({CH2CO}-Y(Carboxymethyl)[4Pal]DWL[Bip]V[NMeA][dL][Dab][Cha]V[Cit]CG[AEEA][Cit][Aun]-OH; thioether N-14) |
| 46.8 nM | CCC(C)[C@@H]1NC(=O)[C@H](Cc2ccc(-c3ccccc3)cc2)NC(=O)[C@H](C(C)C)NC(=O)[C@H](Cc2c[nH]c3ccccc23)NC(=O)[C@H](CC(=O)O)NC(=O)[C@H](Cc2ccc(OCC(=O)O)cc2)NC(=O)[C@H](C(C)O)NC(=O)CSC[C@@H](C(=O)N[C@@H](CCCN)C(=O)N[C@@H](CCC(=O)NCCCCCCCCCCCC(=O)O)C(=O)O)NC(=O)[C@H](C(C)O)NC(=O)[C@H](C(C)C)NC(=O)[C@H](CC2CCCCC2)NC(=O)[C@H](CCN)NC(=O)[C@@H](CC(C)C)NC(=O)[C@H](C)N(C)C1=O (stereo partly drawn) [Example 2418] ({CH2CO}-[Thr(3ξ)]Y(Carboxymethyl)DWV[Bip][Ile(3ξ)][NMeA][dL][Dab][Cha]V[Thr(3ξ)]C[Orn][γGlu][12Ado]-OH; thioether N-14) |

same assay, conditions: PE-labeled PD-L1-Ig 20 nM final, Jurkat-hPD-1 cells; read-out: Jurkat HPD1 PDL1 IC50

| IC50 | Structure (SMILES) |
| --- | --- |
| 48.9 nM | CC(=O)NCCCC[C@@H]1NC(=O)[C@H](C(C)(C)O)NC(=O)[C@H](CC2CCCCC2)NC(=O)[C@H](CCN)NC(=O)[C@@H](CC(C)C)NC(=O)[C@H](C)N(C)C(=O)[C@H](CCC(N)=O)NC(=O)[C@H](Cc2ccc(-c3ccccc3)cc2)NC(=O)[C@H](Cc2ccc(C(=O)O)cc2)NC(=O)[C@H](Cc2cccc(C(F)(F)F)c2)NC(=O)[C@H](CC(=O)O)NC(=O)[C@H](Cc2ccc(OCC(=O)O)cc2)NC(=O)[C@H](Cc2ccc(OCC(=O)O)cc2)NC(=O)CSC[C@@H](C(=O)N[C@@H](CCN)C(=O)NCCCCCCCCCCCCCCC(=O)O)NC1=O [Example 2606] ({CH2CO}-Y(Carboxymethyl)Y(Carboxymethyl)D[Phe(3-CF3)][Phe(4-COOH)][Bip]Q[NMeA][dL][Dab][Cha][Val(3-OH)]K(Ac)C[Dab]-{NH(CH2)14COOH}; thioether N-14) |
| 13.4 nM | Cc1cccc(C[C@@H]2NC(=O)[C@H](CC(=O)O)NC(=O)[C@H](Cc3ccc(C(=O)O)cc3)NC(=O)[C@H](CCN)NC(=O)CSC[C@@H](C(=O)N[C@@H](CCN)C(=O)NCCOCCOCC(=O)NCCOCCOCC(=O)NCCCCCCCCCCC(=O)O)NC(=O)[C@H](CCC(=O)O)NC(=O)[C@H](C(C)C)NC(=O)[C@H](CC3CCCCC3)NC(=O)[C@H](CCN)NC(=O)[C@@H](CC(C)C)NC(=O)[C@H](C)N(C)C(=O)[C@H](Cc3ccc(C(=O)O)cc3)NC(=O)[C@H](Cc3ccc(-c4ccccc4)cc3)NC(=O)[C@H](Cc3ccc(C(=O)O)cc3)NC2=O)c1 [Example 2521] ({CH2CO}-[Dab][Phe(4-COOH)]D[Phe(3-Me)][Phe(4-COOH)][Bip][Phe(4-COOH)][NMeA][dL][Dab][Cha]VEC[Dab][AEEA][AEEA][Aun]-OH; thioether N-14) |
| 5.5 nM | CC(=O)NCCCC[C@@H]1NC(=O)[C@H](C(C)(C)O)NC(=O)[C@H](CC2CCCCC2)NC(=O)[C@H](CCN)NC(=O)[C@@H](CC(C)C)NC(=O)[C@H](C)N(C)C(=O)[C@H](CCCNC(=N)N)NC(=O)[C@H](Cc2ccc(-c3ccccc3)cc2)NC(=O)[C@H](Cc2ccc(C(=O)O)cc2)NC(=O)[C@H](Cc2cccc(C(F)(F)F)c2)NC(=O)[C@H](CC(=O)O)NC(=O)[C@H](Cc2ccc(OCC(=O)O)cc2)NC(=O)[C@H](Cc2ccc(OCC(=O)O)cc2)NC(=O)CSC[C@@H](C(=O)N[C@@H](CCN)C(=O)NCCCCCCCCCCCCC(=O)O)NC1=O [Example 2600] ({CH2CO}-Y(Carboxymethyl)Y(Carboxymethyl)D[Phe(3-CF3)][Phe(4-COOH)][Bip]R[NMeA][dL][Dab][Cha][Val(3-OH)]K(Ac)C[Dab]-{NH(CH2)12COOH}; thioether N-14) |
